Measurements: patent publication US6369061B1, “Therapeutic agent for spinal canal stenosis” (Mitsubishi Pharma Corporation, priority 1998, dated 2002)

Tested on: rabbit acute spinal canal stenosis model
Assay: Rabbit cauda equina nerve graded constriction model as rabbit acute spinal canal stenosis model (nerve conduction velocity, tissue blood flow, tissue oxygen tension)
Assay type: in vivo
Conditions: for Cauda equina nerve conduction velocity / Cauda equina nerve tissue blood flow / Cauda equina nerve tissue oxygen tension: measured 8 days after model preparation, mean ± standard error
Protocol: Effects of compound A on cauda equina nerve conduction velocity, cauda equina nerve tissue blood flow and variation in cauda equina nerve tissue oxygen tension in a rabbit acute spinal canal stenosis model
(1) Preparation of the Rabbit Cauda Equina Nerve Graded Constriction Model as Rabbit Acute Spinal Canal Stenosis Model Male Japanese white rabbits were fixed at the abdominal position under anesthesia by an intravenous injection of pentobarbital sodium (25 mg/kg, DAINIPPON PHARMACEUTICAL CO., LTD.) and the vertebral arch of the fifth lumbar vertebra was removed under a microscope (OLYMPUS OME) observation to expose cauda equina nerve. After the cauda equina nerve fascicle was gently ligated at one site together with a 26 G injection needle using a catgut suture (chromic catgut (thread 4-0, needle 12.9 mm), Johnson and Johnson), the injection needle was pulled out, and the dissected portion was sutured. In the sham operation group, the cauda equina nerve was only exposed and the dissected portion was sutured.
The rabbits were grouped in turn into a sham operation group (6 rabbits), a solvent group (6 rabbits), a compound A (3 mg/kg) administration group (6 rabbits), a compound A (10 mg/kg) administration group (6 rabbits), a compound A (30 mg/kg) administration group (6 rabbits), and a cilostazol (300 mg/kg, the same anti-platelet drug as compound A as a control drug, Otsuka Pharmaceutical Co., Ltd.) administration group (6 rabbits).
The drug was prepared into the volume of 5 mL/kg by suspending in 0.5% methylcellulose solution, and orally administered repeatedly once a day for 7 consecutive days from the next day of the model preparation. The 0.5% methylcellulose solution (5 mL/kg) was administered in the same manner to the solvent group. Nothing was administered to the sham operation group.
The next day of the final administration (8 days after model animals preparation), the model animals were anesthetized by an intravenous injection of pentobarbital sodium (25 mg/kg) and, after insertion of a tracheal catheter, fixed at the abdominal position. The rabbits were connected to a ventilator (45 times/min) and given pancuronium bromide (0.08 mg/kg, Sankyo Co., Ltd.) by an intravenous administration. The cauda equina nerve tissue blood flow in the downstream portion of the ligation site was measured transdurally using a laser blood flowmeter [ADVANCED LASER FLOWMETER, ALF2100, Advance] under the microscope observation. The cauda equina nerve tissue oxygen tension was measured at the same site using a pO2 monitor (model POG-201, Unique Medical Co. Ltd.). The cauda equina nerve conduction velocity was obtained by deriving the action potential induced by a spinal electric stimulus in the upper point and lower point of the ligation site and dividing the distance between the both points by the difference in the rise latent time (SIGNAL PROCESSOR, San-ei).
The obtained results are shown in mean±standard error. Using SAS (Statistical Analysis System), the following statistical analysis was performed. The sham operation group and the solvent group were compared by the Student's t-test. The effect of the drug was verified by the Dunnett's method to the solvent group as a control. In both tests, p<0.05 was taken as statistically significant.

[1] = 300 mg/kg p.o. once a day for 7 days
[2] = 300 mg/kg p.o., vs. solvent group
[3] = 3 mg/kg p.o. once a day for 7 days
[4] = 10 mg/kg p.o. once a day for 7 days
[5] = 30 mg/kg p.o. once a day for 7 days

Structure (SMILES) | Cauda equina nerve conduction velocity [1] [cm/ms] | Cauda equina nerve tissue blood flow [1] [ml/min. 100 g tissue] | Cauda equina nerve tissue oxygen tension [1] [mmHg] | Effect on cauda equina nerve conduction velocity (in words) [2] | Effect on cauda equina nerve tissue blood flow (in words) [2] | Effect on cauda equina nerve tissue oxygen tension (in words) [2] | Cauda equina nerve conduction velocity [3] [cm/ms] | Cauda equina nerve tissue blood flow [3] [ml/min. 100 g tissue] | Cauda equina nerve tissue oxygen tension [3] [mmHg] | Cauda equina nerve conduction velocity [4] [cm/ms] | Cauda equina nerve tissue blood flow [4] [ml/min. 100 g tissue] | Cauda equina nerve tissue oxygen tension [4] [mmHg] | Cauda equina nerve conduction velocity [5] [cm/ms] | Cauda equina nerve tissue blood flow [5] [ml/min. 100 g tissue] | Cauda equina nerve tissue oxygen tension [5] [mmHg] | Effect on cauda equina nerve tissue blood flow (in words) (30 mg/kg p.o., vs. solvent group) | Effect on decrease in cauda equina nerve conduction velocity (in words) (3, 10, 30 mg/kg p.o., vs. solvent group) | Effect on cauda equina nerve tissue oxygen tension (in words) (3, 10, 30 mg/kg p.o., vs. solvent group, significant at 30 mg/kg)
O=C1CCc2cc(OCCCCc3nnnn3C3CCCCC3)ccc2N1 [Cilostazol, cilostazol, reference compound] | 14.585 ± 2.606 | 21.88 ± 4.25 | 33.7 ± 5.3 | did not improve the velocity | not improved | did not show an increasing effect | – | – | – | – | – | – | – | – | – | – | – | –
Cl.O=c1[nH]nc(OCCCc2ccc(Cl)cc2)c(NCc2cccnc2)c1Br [Compound A, 4-bromo-6-[3-(4-chlorophenyl)propoxy]-5-(3-pyridylmethylamino)-3(2H)-pyridazinone hydrochloride] | – | – | – | – | – | – | 20.327 ± 4.871 | 23.33 ± 4.59 | 35.5 ± 5.6 | 22.838 ± 3.571 | 24.42 ± 2.70 | 42.8 ± 5.8 | 27.098 ± 3.627 | 33.67 ± 4.21 | 49.8 ± 3.4 | significantly increased | significantly lessened the decrease in a dose-dependent manner | showed a dose-dependent increase
